Changes are numbered by the printed parent chain. Values belong to the compound of their own block, whether it stands above or below them.
What was measured:
OX1R [1] = target: T1, OX1R (Macaca mulatta, UniProt F7FE63); assay: Radio-ligand displacement binding, CHO-K1 membranes, rhesus OX1R; parameters: species or system rhesus monkey; conditions: read-out: OX1R affinity (Ki)
T1 sequence (F7FE63 1-425): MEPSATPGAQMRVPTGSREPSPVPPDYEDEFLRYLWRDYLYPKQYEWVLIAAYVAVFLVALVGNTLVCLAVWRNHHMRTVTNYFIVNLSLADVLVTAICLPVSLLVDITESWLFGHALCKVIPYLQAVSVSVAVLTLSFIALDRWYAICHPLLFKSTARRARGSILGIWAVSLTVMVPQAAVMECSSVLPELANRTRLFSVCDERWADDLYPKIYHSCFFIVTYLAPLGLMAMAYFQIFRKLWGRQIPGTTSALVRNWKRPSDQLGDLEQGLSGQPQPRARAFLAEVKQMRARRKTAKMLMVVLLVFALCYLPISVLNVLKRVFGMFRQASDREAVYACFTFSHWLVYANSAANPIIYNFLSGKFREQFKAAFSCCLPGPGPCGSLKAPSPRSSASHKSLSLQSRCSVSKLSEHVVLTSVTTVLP
Experimental: (§1) MK-1064 was evaluated for its ability to inhibit orexin-peptide-A-induced calcium mobilization in CHO cell lines separately expressing OX1R and OX2R from mice, rats, rabbits, dogs, rhesus monkeys and humans.
(§2) Binding and functional blockade of OX1R and OX2R with MK-1064 relative to other 2-SORAs and the DORA, MK-6096, were assessed using membranes from Chinese hamster ovary (CHO)-K1 cells (American Type Tissue Collection, Manassas, VA) transfected to express human, mouse, rat, rabbit, dog, or rhesus monkey OX1R or OX2R receptors, as described previously. The kinetics of binding to human OX2R was assessed by radioligand displacement on CHO-K1 cells expressing the receptor. […] The ON rate analysis was performed by presoaking GF/B filters in 0.3% polyethyleneimine (Sigma) using a Skatron 12-well cell harvester and cold buffer at the indicated time points after addition. For OFF rate determination, binding reactions were allowed to proceed to equilibrium and terminated with 1000x [Kd] of unlabeled antagonist and filtered as above at pre-determined time points. Ultima Gold^TM (PerkinElmer 6013327) scintillation cocktail was added to each filter disc and counted on a PerkinElmer TriCarb 2910 scintillation counter. Data were analyzed using GraphPad® Prism v 6.04 (San Diego, CA, USA). The KON rate was determined according to the equation, KON = (KOBS − KOFF)/[ligand].

OX1R [2] = target: T2, OX1R (Rattus norvegicus, UniProt P56718); assay: Inhibition of orexin-peptide-A-induced calcium mobilization in CHO cells, rat OX1R; format: cell-based
T2 construct: expressed in transfected cells; host or cells: CHO-K1
T2 sequence (P56718 1-416): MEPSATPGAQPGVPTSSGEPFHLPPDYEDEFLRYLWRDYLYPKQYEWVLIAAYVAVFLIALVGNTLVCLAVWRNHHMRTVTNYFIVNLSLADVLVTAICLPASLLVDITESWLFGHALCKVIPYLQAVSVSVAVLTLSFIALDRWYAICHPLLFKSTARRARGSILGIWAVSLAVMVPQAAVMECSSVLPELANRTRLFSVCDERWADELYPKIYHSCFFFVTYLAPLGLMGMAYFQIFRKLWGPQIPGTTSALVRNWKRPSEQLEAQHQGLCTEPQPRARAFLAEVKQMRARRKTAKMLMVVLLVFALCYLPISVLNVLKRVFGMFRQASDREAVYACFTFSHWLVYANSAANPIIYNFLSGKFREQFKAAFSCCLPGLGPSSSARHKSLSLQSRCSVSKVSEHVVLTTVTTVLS
Experimental: as §1, §2

OX2R [3] = target: T3, OX2R (Oryctolagus cuniculus, UniProt G1STQ8); assay: Inhibition of orexin-peptide-A-induced calcium mobilization in CHO cells, rabbit OX2R; format: cell-based; conditions: for fold OX2R selectivity (Kb): OX1R Kb / OX2R Kb
T3 sequence (G1STQ8 1-444): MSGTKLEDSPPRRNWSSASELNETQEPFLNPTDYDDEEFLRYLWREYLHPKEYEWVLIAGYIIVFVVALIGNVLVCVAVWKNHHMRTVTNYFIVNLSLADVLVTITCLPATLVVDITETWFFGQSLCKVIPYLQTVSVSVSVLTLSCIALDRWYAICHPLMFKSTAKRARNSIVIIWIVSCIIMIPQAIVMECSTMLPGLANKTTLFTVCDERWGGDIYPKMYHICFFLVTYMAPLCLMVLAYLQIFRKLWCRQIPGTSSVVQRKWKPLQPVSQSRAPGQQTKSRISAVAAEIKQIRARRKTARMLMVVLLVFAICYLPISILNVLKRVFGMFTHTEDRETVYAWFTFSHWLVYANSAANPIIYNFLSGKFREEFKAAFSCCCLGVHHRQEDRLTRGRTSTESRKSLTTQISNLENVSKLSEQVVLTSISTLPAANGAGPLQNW
Experimental: as §1, §2

OX2R [4] = target: T4, OX2R (Mus musculus, UniProt P58308); assay: Inhibition of orexin-peptide-A-induced calcium mobilization in CHO cells, mouse OX2R; format: cell-based; conditions: for fold OX2R selectivity (Kb): OX1R Kb / OX2R Kb
T4 construct: expressed in transfected cells; host or cells: CHO-K1
T4 sequence (P58308 1-460): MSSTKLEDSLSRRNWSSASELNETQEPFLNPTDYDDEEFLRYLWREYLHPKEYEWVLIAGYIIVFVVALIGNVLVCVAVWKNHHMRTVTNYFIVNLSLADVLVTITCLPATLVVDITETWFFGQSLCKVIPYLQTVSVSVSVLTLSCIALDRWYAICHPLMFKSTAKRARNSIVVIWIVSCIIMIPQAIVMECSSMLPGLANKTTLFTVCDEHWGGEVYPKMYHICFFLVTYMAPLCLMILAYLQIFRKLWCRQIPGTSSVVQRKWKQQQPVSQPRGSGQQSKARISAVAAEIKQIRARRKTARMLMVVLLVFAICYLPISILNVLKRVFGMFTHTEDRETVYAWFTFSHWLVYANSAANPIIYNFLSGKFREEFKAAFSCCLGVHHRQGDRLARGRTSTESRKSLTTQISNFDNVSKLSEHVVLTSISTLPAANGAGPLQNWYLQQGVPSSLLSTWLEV
Experimental: as §1, §2

hOX1R = target: T5, hOX1R (Homo sapiens, UniProt O43613); assay: Inhibition of orexin-peptide-A-induced calcium mobilization in CHO cells, human OX1R; format: cell-based
T5 construct: expressed in transfected cells; host or cells: CHO-K1
T5 sequence (O43613 1-425): T1 sequence (F7FE63 1-425) with R12G, T15P, L58V, V102A, T174A, V175I, Q275E, P380L, V408I, L411I
Experimental: as §1, §2

SMILES: COc1ccc(CNC(=O)c2cc(-c3cncc(C)c3)ncc2-c2ccccc2)nc1OC [2-SORA-7]
Ki (OX1R [1]): 1340 nM | Kb (OX1R [2]): 58300 nM | Kb (OX2R [3]): 22 nM | fold OX2R selectivity (Kb) (OX2R [3]): [764] fold | Kb (OX2R [4]): 14 nM | fold OX2R selectivity (Kb) (OX2R [4]): [568] fold | Kb (hOX1R): 4360 nM

SMILES: COc1ccc(CNC(=O)c2cc(-c3cc(Cl)cc(Cl)c3)cnc2-c2cccnc2)cc1OC [2-SORA-18]
Ki (OX1R [1]): 132 nM | Kb (OX1R [2]): 1050 nM | Kb (OX2R [3]): 30 nM | fold OX2R selectivity (Kb) (OX2R [3]): [17] fold | Kb (OX2R [4]): 24 nM | fold OX2R selectivity (Kb) (OX2R [4]): [9] fold | Kb (hOX1R): 161 nM

SMILES: COc1ccc(CNC(=O)c2cc(-c3cncc(Cl)c3)cnc2-c2ccccn2)nc1OC [MK-1064, 5″-chloro-N-[(5,6-dimethoxypyridin-2-yl)methyl]-2,2′:5′, 3″-terpyridine-3′-carbo xamide]
Ki (OX1R [1]): 815 nM | Kb (OX1R [2]): 7970 nM | Kb (OX2R [3]): 10 nM | fold OX2R selectivity (Kb) (OX2R [3]): [737] fold | Kb (OX2R [4]): 7 nM | fold OX2R selectivity (Kb) (OX2R [4]): [1471] fold | Kb (hOX1R): 1870 nM

Ki (OX1R [1]): 2180 nM | Kb (OX1R [2]): 36400 nM | Kb (OX2R [3]): 27 nM | Kb (OX2R [4]): 12 nM
SMILES: COc1ccc(CNC(=O)c2cc(-c3cncc(C)c3)ncc2-c2nccs2)nc1OC [MK-3697]

SMILES: Cc1ccc(-c2ncccn2)c(C(=O)N2C[C@H](COc3ccc(F)cn3)CC[C@H]2C)c1 [MK-6096]
Ki (OX1R [1]): 12.5 nM | Kb (OX1R [2]): 10 nM | Kb (OX2R [3]): 16 nM | fold OX2R selectivity (Kb) (OX2R [3]): [0.8] fold | Kb (OX2R [4]): 10 nM | fold OX2R selectivity (Kb) (OX2R [4]): [0.9] fold | Kb (hOX1R): 11 nM

— article PMC4891657, “Orexin 2 Receptor Antagonism is Sufficient to Promote NREM and REM Sleep from Mouse to Man” (Scientific Reports, 2016)
